Laboratory results reported in article PMC12707346, “Discovery and validation of small molecule stabilizers of mutant triose phosphate isomerase (TPI) as potential lead candidates for TPI deficiency” (SLAS discovery : advancing life sciences R & D, 2025).
Entries after “also recorded” stand apart in the source; their conditions may differ. Read-outs that look alike come from different tables or passages of the source.

Assay: Tissue distribution study in mice, 20 mg/kg i.p.
Assay type: in vivo, C57BL/6 J mice
Details: mouse; for concentration at 8 h / concentration at 0.5 h / concentration at 1 h / concentration at 2 h / concentration at 4 h / Kp at 1 h / Kp at 2 h / Kp at 4 h / Kp at 8 h / Kp at 0.5 h: male, IP 20 mg/kg; for concentration at 8 h / concentration at 0.5 h / concentration at 1 h / concentration at 2 h / concentration at 4 h: ip; for Kp at 1 h / Kp at 2 h / Kp at 4 h / Kp at 8 h / Kp at 0.5 h: read-out: Mean Tissue/ Plasma Conc Ratio
Description: Male C57BL/6 J (Jackson Laboratories) wild type mice (age: 40–60 days) weighing 25–30 g, were used for the tissue distribution study. Mice were randomly assigned in two groups: blank (n = 1) and treatment. The treatment group received 20 mg/kg compound 424 intraperitoneally (n = 15; 3 animals per time point i.e., 0.5, 1, 2, 4, and 8 h). Molport 002–877–424 was formulated in a vehicle consisting of 20 % DMSO, 50 % PEG300, and 30 % sterile water. At each time point animals were euthanized via isoflurane overdose. Blood was collected in ETDA-coated tubes at each time points and centrifuged at 15,000 x g for 5 min. The separated plasma was stored at −80 °C. Following blood collection, liver, kidney, skeletal muscle and brain were isolated, rinsed in normal saline and approximately 100 mg of tissues were snap-frozen and stored at −80 °C. All plasma and tissue samples were shipped on dry ice to Touchstone Biosciences for further analysis. Sample preparation and analysis was performed at Touchstone Biosciences exactly as described in [20].

[1] = C57BL/6 J, kidney, 20 mg/kg, Kidney, read-out: Mean Tissue
[2] = C57BL/6J, liver homogenate, 20 mg/kg, Liver, read-out: Mean Plasma or Tissue Homogenate Conc
[3] = C57BL/6J, liver homogenate, 20 mg/kg, Liver, read-out: Plasma or Tissue Homogenate Conc (individual animals)
[4] = C57BL/6J, liver, 20 mg/kg, Liver, read-out: Mean Tissue
[5] = C57BL/6J, muscle homogenate, 20 mg/kg, Muscle, read-out: Mean Plasma or Tissue Homogenate Conc
[6] = C57BL/6J, muscle homogenate, 20 mg/kg, Muscle, read-out: Plasma or Tissue Homogenate Conc (individual animals)
[7] = C57BL/6J, muscle, 20 mg/kg, Muscle, read-out: Mean Tissue
[8] = C57BL/6 J, plasma, 20 mg/kg, Plasma, read-out: Mean Plasma or Tissue Homogenate Conc
[9] = C57BL/6 J, plasma, 20 mg/kg, Plasma, read-out: Plasma or Tissue Homogenate Conc (individual animals)
[10] = C57BL/6J, muscle/plasma, Muscle

With `c1ccc(-c2nnc(-c3ccccn3)nc2NC2CCCCC2)cc1` [MolPort-002-877-424, C1CCC(CC1)Nc2nc(nnc2c3ccccc3)c4ccccn4] the concentration at 8 h (C57BL/6 J, kidney homogenate, 20 mg/kg, Kidney, read-out: Plasma or Tissue Homogenate Conc (individual animals)) was 0.153 µg/mL, the concentration at 0.5 h (C57BL/6J, kidney, 20 mg/kg, Kidney, read-out: Mean Tissue) was 9830 ng/g and the concentration at 1 h [1] was 8510 ng/g. For the same compound, the concentration at 2 h [1] was 4070 ng/g, the concentration at 4 h [1] was 1760 ng/g and the concentration at 8 h [1] was 784 ng/g. For the same compound, the concentration at 0.5 h [2] was 3.6 µg/mL, the concentration at 0.5 h [3] was 4.28 µg/mL and the concentration at 1 h [2] was 3.03 µg/mL. For the same compound, the concentration at 1 h [3] was 2.45 µg/mL, the concentration at 2 h [2] was 1.57 µg/mL and the concentration at 2 h [3] was 1.37 µg/mL. It also gave a concentration at 4 h [2] of 0.687 µg/mL, a concentration at 4 h [3] of 0.539 µg/mL and a concentration at 8 h [2] of 0.273 µg/mL. For the same compound, the concentration at 8 h [3] was 0.205 µg/mL, the concentration at 0.5 h [4] was 14400 ng/g and the concentration at 1 h [4] was 12100 ng/g. It also gave a concentration at 2 h [4] of 6270 ng/g, a concentration at 4 h [4] of 2750 ng/g and a concentration at 8 h [4] of 1090 ng/g. It also gave a concentration at 0.5 h (C57BL/6 J, muscle homogenate, 20 mg/kg, Muscle, read-out: Mean Plasma or Tissue Homogenate Conc) of 0.516 µg/mL, a concentration at 0.5 h (C57BL/6 J, muscle homogenate, 20 mg/kg, Muscle, read-out: Plasma or Tissue Homogenate Conc (individual animals)) of 0.443 µg/mL and a concentration at 1 h [5] of 0.39 µg/mL. It also gave a concentration at 1 h [6] of 0.336 µg/mL, a concentration at 2 h [5] of 0.192 µg/mL and a concentration at 2 h [6] of 0.152 µg/mL. The concentration at 4 h [5] was 0.0833 µg/mL, the concentration at 4 h [6] was 0.0636 µg/mL and the concentration at 8 h [5] was 0.0331 µg/mL. For the same compound, the concentration at 8 h [6] was 0.0261 µg/mL, the concentration at 0.5 h (C57BL/6 J, muscle, 20 mg/kg, Muscle, read-out: Mean Tissue) was 2060 ng/g and the concentration at 1 h [7] was 1560 ng/g. It also gave a concentration at 2 h [7] of 768 ng/g, a concentration at 4 h [7] of 333 ng/g and a concentration at 8 h [7] of 132 ng/g. The concentration at 0.5 h [8] was 10.5 µg/mL, the concentration at 0.5 h [9] was 12.3 µg/mL and the concentration at 1 h [8] was 9.15 µg/mL. The concentration at 1 h [9] was 7.7 µg/mL, the concentration at 2 h [8] was 4.81 µg/mL and the concentration at 2 h [9] was 5.56 µg/mL. The concentration at 4 h [8] was 2.19 µg/mL, the concentration at 4 h [9] was 1.93 µg/mL and the concentration at 8 h [8] was 1.03 µg/mL. It also gave a concentration at 8 h [9] of 0.868 µg/mL, a Kp at 1 h [10] of 0.17 and a Kp at 2 h [10] of 0.16. For the same compound, the Kp at 4 h [10] was 0.152, the Kp at 8 h [10] was 0.128 and the Kp at 0.5 h (C57BL/6 J, Brain) was 0.134. For the same compound, the Kp at 1 h (C57BL/6 J, Brain) was 0.12, the Kp at 2 h (C57BL/6 J, Brain) was 0.113 and the Kp at 4 h (C57BL/6 J, Brain) was 0.105. For the same compound, the Kp at 8 h (C57BL/6 J, Brain) was 0.086, the Kp at 1 h (C57BL/6 J, Kidney) was 0.929 and the Kp at 2 h (C57BL/6 J, Kidney) was 0.846. The Kp at 4 h (C57BL/6 J, Kidney) was 0.801, the Kp at 8 h (C57BL/6 J, Kidney) was 0.758 and the Kp at 0.5 h (C57BL/6 J, Muscle) was 0.197. The levels in muscle (20 mg/kg i.p.) was 1 to 1.6 µM and the “tissue distribution” value (20 mg/kg i.p., 20 mg/kg) was “accumulated preferentially in liver and kidney; also recorded: moderately brain-penetrant”.
